Assay results published in patent US9029544B2, “Tricyclic pyridine derivatives, medicaments containing such compounds, their use and process for their preparation” (Boehringer Ingelheim International GmbH, priority 2010, dated 2015).

Molecular target: T1, Recombinant human CETP (Homo sapiens, UniProt P11597)
T1 construct: made in house; host or cells: CHO cells (secreted into conditioned medium)
T1 sequence (P11597 18-493): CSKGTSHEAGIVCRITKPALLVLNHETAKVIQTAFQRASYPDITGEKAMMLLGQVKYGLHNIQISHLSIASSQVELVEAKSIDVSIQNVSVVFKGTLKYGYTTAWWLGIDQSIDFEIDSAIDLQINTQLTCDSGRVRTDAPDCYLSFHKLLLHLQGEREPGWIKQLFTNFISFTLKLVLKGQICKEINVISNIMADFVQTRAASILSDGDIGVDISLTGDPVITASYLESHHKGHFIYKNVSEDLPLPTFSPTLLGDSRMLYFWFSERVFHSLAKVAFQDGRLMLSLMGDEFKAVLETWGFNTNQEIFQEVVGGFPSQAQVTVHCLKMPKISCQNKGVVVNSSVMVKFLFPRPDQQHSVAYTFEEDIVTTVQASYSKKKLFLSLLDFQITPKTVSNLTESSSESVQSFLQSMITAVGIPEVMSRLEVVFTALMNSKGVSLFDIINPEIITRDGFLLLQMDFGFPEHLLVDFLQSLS
Test: CETP in vitro assay (fluorometric assay, Roar Biomedical; cholesterol ester transfer from HDL to LDL)
Type: biochemical
Conditions: recombinant human CETP from CHO cells; 3 hours at 37° C.; fluorescence 485/535 nm; compound concentrations between 1 nM and 30 μM; read-out: IC50 values for inhibition of CETP
Description: CETP inhibitory activity of compounds of the present invention can be determined in a fluorometric assay purchased from Roar Biomedical, Inc. (New York, N.Y., USA). […] Recombinant human CETP was partially purified from medium conditioned by CETP expressing CHO cells. In a 384 well format 2.5 μl of compound solution in DMSO was combined with 2 μl of donor solution, 2 μl of acceptor solution and 0.8 μl of recombinant human CETP solution in a total volume of 100 μl with assay buffer and incubated for 3 hours at 37° C. The fluorescence intensity was measured at excitation wavelength of 485 nm and emission wavelength of 535 nm. IC50 values are calculated from dose effect curves from compound concentrations between 1 nM and 30 μM.

| SMILES | IC50 [nM] |
| --- | --- |
| CC(C)c1nc2c(c3c1[C@@H](c1ccc(C(F)(F)F)cn1)OC31CCOCC1)[C@@H](O)CC1(CCC1)C2 [1(49), (3S,9S)-4-isopropyl-7,7-(propan-1,3-diyl)-3-(5-(trifluoromethyl)pyridin-2-yl)-2′,3′,5′,6,6′,7,8,9-octahydro-3H-spiro[furo[3,4-c]quinoline-1,4′-pyran]-9-ol] | 37 |
| CC(C)c1nc2c(c3c1[C@@H](c1ccc(C(F)(F)F)cc1)OC31CCOCC1)[C@@H](O)CC(C)(C)[C@H]2O [4(2), (3R,6R,9S)-4-isopropyl-7,7-dimethyl-3-(4-(trifluoromethyl)phenyl)-2′,3′,5′,6,6′,7,8,9-octahydro-3H-spiro[furo[3,4-c]quinoline-1,4′-pyran]-6,9-diol] | 25 |
| COC(C)(C)c1nc2c(c3c1[C@@H](c1ccc(C(F)(F)F)cc1)OC31CCOCC1)[C@@H](O)CC(C)(C)C2 [1(83), (3R,9S)-4-(2-methoxypropan-2-yl)-7,7-dimethyl-3-(4-(trifluoromethyl)phenyl)-2′,3′,5′,6,6′,7,8,9-octahydro-3H-spiro[furo[3,4-c]quinoline-1,4′-pyran]-9-ol] | 25 |
| CC(C)(C)c1ccc([C@H]2OC3(CCOCC3)c3c2c(C2CCOCC2)nc2c3[C@@H](O)CC(C)(C)[C@H]2O)cc1 [4(13), (3R,6R,9S)-3-(4-tert-butylphenyl)-7,7-dimethyl-4-(tetrahydro-2H-pyran-4-yl)-2′,3′,5′,6,6′,7,8,9-octahydro-3H-spiro[furo[3,4-c]quinoline-1,4′-pyran]-6,9-diol] | 51 |
| CC(C)c1nc2c(c3c1[C@@H](c1ccc(C(F)(F)F)cn1)OC31CCOCC1)[C@@H](O)CC(C)(C)[C@H]2O [5(4), (3S,6R,9S)-4-isopropyl-7,7-dimethyl-3-(5-(trifluoromethyl)pyridin-2-yl)-2′,3′,5′,6,6′,7,8,9-octahydro-3H-spiro[furo[3,4-c]quinoline-1,4′-pyran]-6,9-diol] | 183 |
| CC1(C)Cc2nc(C3CCOCC3)c3c(c2[C@@H](O)C1)C1(CCOCC1)O[C@@H]3c1ccc(C(C)(C)C)cc1 [1(70), (3R,9S)-3-(4-tert-butylphenyl)-7,7-dimethyl-4-(tetrahydro-2H-pyran-4-yl)-2′,3′,5′,6,6′,7,8,9-octahydro-3H-spiro[furo[3,4-c]quinoline-1,4′-pyran]-9-ol] | 57 |
| CC(C)c1nc2c(c3c1[C@@H](c1ccc(C(F)(F)F)cc1F)OC31CCOCC1)[C@@H](O)CC(C)(C)[C@H]2O [4(5), (3S,6R,9S)-3-(2-fluoro-4-(trifluoromethyl)phenyl)-4-isopropyl-7,7-dimethyl-2′,3′,5′,6,6′,7,8,9-octahydro-3H-spiro[furo[3,4-c]quinoline-1,4′-pyran]-6,9-diol] | 15 |
| CC(C)c1nc2c(c3c1[C@@H](c1ccc(C(F)(F)F)cn1)OC31CCC(F)(F)CC1)[C@@H](O)CC(C)(C)C2 (single isomer, unassigned) [7 (Diastereomer 1), (3′S,9′S)-4,4-difluoro-4′-isopropyl-7′,7′-dimethyl-3′-(5-(trifluoromethyl)pyridin-2-yl)-6′,7′,8′,9′-tetrahydro-3′H-spiro[cyclohexane-1,1′-furo[3,4-c]quinolin]-9′-ol] | 193 |
| CC(C)c1nc2c(c3c1[C@@H](c1ccc(S(F)(F)(F)(F)F)cc1)OC31CCOCC1)[C@@H](O)CC1(CCC1)C2 [1(69), (3R,9S)-4-isopropyl-7,7-(propan-1,3-diyl)-3-(4-(pentafluorosulfanyl)phenyl)-2′,3′,5′,6,6′,7,8,9-octahydro-3H-spiro[furo[3,4-c]quinoline-1,4′-pyran]-9-ol] | 14 |
| CC(C)c1nc2c(c3c1[C@@H](c1ccc(C(C)(C)C)cc1)OC31CCOCC1)[C@@H](O)CC1(CCC1)C2 [1(63), (3R,9S)-3-(4-tert-butylphenyl)-4-isopropyl-7,7-(propan-1,3-diyl)-2′,3′,5′,6,6′,7,8,9-octahydro-3H-spiro[furo[3,4-c]quinoline-1,4′-pyran]-9-ol] | 6 |
| CC(C)c1nc2c(c3c1[C@@H](c1ccc(OC(C)(C)C)cc1)OC31CCOCC1)[C@@H](O)CC(C)(C)C2 [1(58), (3R,9S)-3-(4-tert-butoxyphenyl)-4-isopropyl-7,7-dimethyl-2′,3′,5′,6,6′,7,8,9-octahydro-3H-spiro[furo[3,4-c]quinoline-1,4′-pyran]-9-ol] | 88 |
| CC(C)c1nc2c(c3c1[C@@H](c1ccc(C(F)(F)F)cc1F)OC31CCOCC1)[C@@H](O)CC(C)(C)[C@@H]2O [Example 6, (3S,6S,9S)-3-(2-fluoro-4-(trifluoromethyl)phenyl)-4-isopropyl-7,7-dimethyl-2′,3′,5′,6,6′,7,8,9-octahydro-3H-spiro[furo[3,4-c]quinoline-1,4′-pyran]-6,9-diol] | 410 |
| CC(C)c1nc2c(c3c1[C@@H](c1ccc(C(F)(F)F)cc1)OC31CCOCC1)[C@@H](O)CC1(CCC1)C2 [1(50), (3R,9S)-4-isopropyl-7,7-(propan-1,3-diyl)-3-(4-(trifluoromethyl)phenyl)-2′,3′,5′,6,6′,7,8,9-octahydro-3H-spiro[furo[3,4-c]quinoline-1,4′-pyran]-9-ol] | 7 |
| N#Cc1cc([C@H]2OC3(CCOCC3)c3c2c(C2CCOCC2)nc2c3[C@@H](O)CC3(CCC3)[C@H]2O)ccc1C(F)(F)F [4(14), 5-((3R,6R,9S)-6,9-dihydroxy-7,7-(propan-1,3-diyl)-4-(tetrahydro-2H-pyran-4-yl)-2′,3′,5′,6,6′,7,8,9-octahydro-3H-spiro[furo[3,4-c]quinoline-1,4′-pyran]-3-yl)-2-(trifluoromethyl)benzonitrile] | 65 |
| CC(C)c1nc2c(c3c1[C@@H](c1ccc(C(F)(F)F)nc1)OC31CCOCC1)[C@@H](O)CC1(CCC1)[C@H]2O [Example 5, (3R,6R,9S)-4-isopropyl-7,7-(propan-1,3-diyl)-3-(6-(trifluoromethyl)pyridin-3-yl)-2′,3′,5′,6,6′,7,8,9-octahydro-3H-spiro[furo[3,4-c]quinoline-1,4′-pyran]-6,9-diol] | 13 |
| CC(C)c1nc2c(c3c1[C@@H](c1ccc(C(F)(F)F)c(C#N)c1)OC31CCOCC1)[C@@H](O)CC(C)(C)C2 [1(66), 5-((3R,9S)-9-hydroxy-4-isopropyl-7,7-dimethyl-2′,3′,5′,6,6′,7,8,9-octahydro-3H-spiro[furo[3,4-c]quinoline-1,4′-pyran]-3-yl)-2-(trifluoromethyl)benzonitrile] | 34 |
| CC(C)c1nc2c(c3c1[C@@H](c1ccc(C(F)(F)F)c(F)c1)OC31CCOCC1)[C@@H](O)CC(C)(C)C2 [1(53), (3R,9S)-3-(3-fluoro-4-(trifluoromethyl)phenyl)-4-isopropyl-7,7-dimethyl-2′,3′,5′,6,6′,7,8,9-octahydro-3H-spiro[furo[3,4-c]quinoline-1,4′-pyran]-9-ol] | 23 |
| CC1(C)Cc2nc(C3CCOCC3)c3c(c2[C@@H](O)C1)C1(CCOCC1)O[C@@H]3c1ccc(S(F)(F)(F)(F)F)cc1 [1(61), (3R,9S)-7,7-dimethyl-4-(tetrahydro-2H-pyran-4-yl)-3-(4-(pentafluorosulfanyl)phenyl)-2′,3′,5′,6,6′,7,8,9-octahydro-3H-spiro[furo[3,4-c]quinoline-1,4′-pyran]-9-ol] | 66 |
| Cc1nc([C@H]2OC3(CCOCC3)c3c2c(C(C)C)nc2c3[C@@H](O)CC(C)(C)C2)sc1C(C)(C)C [1(56), (3S,9S)-3-(5-tert-butyl-4-methylthiazol-2-yl)-4-isopropyl-7,7-dimethyl-2′,3′,5′,6,6′,7,8,9-octahydro-3H-spiro[furo[3,4-c]quinoline-1,4′-pyran]-9-ol] | 470 |
| CC(C)c1nc2c(c3c1[C@@H](c1ccc(C(F)(F)F)cn1)OC31CCOCC1)[C@@H](O)CC(C)(C)[C@@H]2O [5(3), (3S,6S,9S)-4-isopropyl-7,7-dimethyl-3-(5-(trifluoromethyl)pyridin-2-yl)-2′,3′,5′,6,6′,7,8,9-octahydro-3H-spiro[furo[3,4-c]quinoline-1,4′-pyran]-6,9-diol] | 2700 |
| CC1(C)C[C@H](O)c2c(nc(C3CCOCC3)c3c2C2(CCOCC2)O[C@@H]3c2ccc(C(F)(F)F)nc2)[C@@H]1O [6(2), (3R,6R,9S)-7,7-dimethyl-4-(tetrahydro-2H-pyran-4-yl)-3-(6-(trifluoromethyl)pyridin-3-yl)-2′,3′,5′,6,6′,7,8,9-octahydro-3H-spiro[furo[3,4-c]quinoline-1,4′-pyran]-6,9-diol] | 1540 |
| CC(C)c1nc2c(c3c1[C@H](c1ccc(C(F)(F)F)cn1)OC31CCC(F)(F)CC1)[C@@H](O)CC(C)(C)C2 (single isomer, unassigned) [7 (Diastereomer 2), (3′R,9′S)-4,4-difluoro-4′-isopropyl-7′,7′-dimethyl-3′-(5-(trifluoromethyl)pyridin-2-yl)-6′,7′,8′,9′-tetrahydro-3′H-spiro[cyclohexane-1,1′-furo[3,4-c]quinolin]-9′-ol] | 1150 |
